# From publication PMC7559897, “Designed Antimicrobial Peptides Against Trauma-Related Cutaneous Invasive Fungal Wound Infections” (Journal of Fungi, 2020)
# Bridge positions count the residues as written; N and C are the ends. Peptide text beside a SMILES is read from it.
# Legend:
# [1] = system: L929 fibroblast cells; assay: Bioluminescent mammalian cytotoxicity assay; format: cell-based, murine; settings: L929 fibroblasts, up to 64 μg/mL, 8 h of exposure, bioluminescence
# Description: Real-time killing of bacterial cells, P. aeruginosa or S. aureus, and mammalian cytotoxicity to assess dAMP off-target toxicity was evaluated using bioluminescent cells. The L929 fibroblast cells (ATCC, Manassas, VA, USA) were made bioluminescent by transfection with a luciferase gene. Cells (1 × 10^4 cells, 100 μL) were plated in 96-well black-walled plates and the candidate dAMPs were 2-fold serially diluted from specified concentrations in growth medium supplemented with 150 μg/mL D-luciferin. Each concentration was performed in triplicate, with the final volume being 200 μL. Imaging was performed at select times after the addition of the dAMP, and compared to concurrently run vehicle-control, using an IVIS Lumina imaging system (Caliper Life Sciences, Inc., Hopkinton, MA, USA). For imaging, the 96-well plate was positioned on the stage (12.5-cm field of view), with an open emission filter, binning of 4, and f-stop 1 and a 1-min exposure time. Monitoring bioluminescence allows assessment of the kinetics of cellular viability as there is a tight correlation between the bioluminescent signal and cell viability. […]
# Figure 2 RP504, RP556 and RP557 induce limited mammalian cell toxicity. […] Cells were plated at 1×10^4 cells/well, allowed to adhere overnight and the specific dAMP added, and cytotoxicity evaluated through 8 h. […]
# [2] = system: P. aeruginosa 19660 (Xen5 luciferase); assay: Bioluminescent time-kill assay; format: cell-based, Pseudomonas aeruginosa; settings: 8 μg/mL; RP553 at 60 min; bioluminescence
# From the text: Fungal and bacterial strains were obtained from American Type Culture Collection (ATCC, Manassas, VA, USA) or the clinical isolate collection at Trideum Biosciences (Frederick, MD, USA) and are presented in Table 1 and Table 2, respectively. Bioluminescence strains of P. aeruginosa 19660, transfected with the Xen5 luciferase gene, and S. aureus ATCC R 49525TM (Wright), transfected with the Xen36 luciferase gene, were obtained from Perkin Elmer (Waltham, MA, USA).
# Real-time killing of bacterial cells, P. aeruginosa or S. aureus, and mammalian cytotoxicity to assess dAMP off-target toxicity was evaluated using bioluminescent cells. The L929 fibroblast cells (ATCC, Manassas, VA, USA) were made bioluminescent by transfection with a luciferase gene. Cells (1 × 10^4 cells, 100 μL) were plated in 96-well black-walled plates and the candidate dAMPs were 2-fold serially diluted from specified concentrations in growth medium supplemented with 150 μg/mL D-luciferin. Each concentration was performed in triplicate, with the final volume being 200 μL. Imaging was performed at select times after the addition of the dAMP, and compared to concurrently run vehicle-control, using an IVIS Lumina imaging system (Caliper Life Sciences, Inc., Hopkinton, MA, USA). For imaging, the 96-well plate was positioned on the stage (12.5-cm field of view), with an open emission filter, binning of 4, and f-stop 1 and a 1-min exposure time. Monitoring bioluminescence allows assessment of the kinetics of cellular viability as there is a tight correlation between the bioluminescent signal and cell viability. Data analysis was performed using the Living Image software program (version 4.3, Caliper Life Sciences, Inc., Hopkinton, MA, USA).
# Figure 3 RP553, RP556, RP557 rapidly destroy P. aeruginosa and S. aureus. The bioluminescence of viable P. aeruginosa 19,660 and S. aureus 49,525 cells was quantitated in real time with an IVIS Lumina bioimaging system. Data represent the mean ± SE of triplicate replicates from two independent experiments. For some points, the error bars are shorter than the height of the symbols.
# [3] = system: Candida albicans Y-326; format: cell-based; settings: potato dextrose broth, 24 h, 37 °C, OD600 <0.1 in at least 3 of 4 wells, dose range 2 to 128 µg/mL; shaded values previously reported ref 17
# In short: (§1)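 MIC = lowest dAMP level giving OD600 <0.1 in at least three of four replicate wells after 24 h at 37 °C. Inoculum ~10^6 CFU/mL in 2X cation-adjusted Mueller–Hinton broth; potato dextrose broth for the fungal isolate. Test range 2–128 μg/mL plus untreated.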
# [4] = system: Aspergillus flavus MYA-3651; format: cell-based; settings: potato dextrose broth, 24 h, 37 °C, OD600 <0.1 in at least 3 of 4 wells, dose range 2 to 128 µg/mL; shaded values previously reported ref 17
# In short: as §1
# [5] = system: Candida krusei Y-27825; format: cell-based; settings: potato dextrose broth, 24 h, 37 °C, OD600 <0.1 in at least 3 of 4 wells, dose range 2 to 128 µg/mL; shaded values previously reported ref 17
# In short: as §1
# [6] = system: Aspergillus fumigatus 9651; format: cell-based; settings: potato dextrose broth, 24 h, 37 °C, OD600 <0.1 in at least 3 of 4 wells, dose range 2 to 128 µg/mL; shaded values previously reported ref 17
# In short: as §1
# [7] = system: E. cloacae 6053; format: cell-based; settings: cation adjusted Mueller-Hinton broth, ~10^6 CFU/mL, 24 h, 37 °C, OD600 <0.1 in at least 3 of 4 wells, 2-128 μg/mL; shaded values previously reported ref 18
# In short: as §1
# [8] = system: Candida parapsilosis Y-1763; format: cell-based; settings: potato dextrose broth, 24 h, 37 °C, OD600 <0.1 in at least 3 of 4 wells, dose range 2 to 128 µg/mL; shaded values previously reported ref 17
# In short: as §1
# [9] = system: Aspergillus flavus MYA-1004; format: cell-based; settings: potato dextrose broth, 24 h, 37 °C, OD600 <0.1 in at least 3 of 4 wells, dose range 2 to 128 µg/mL; shaded values previously reported ref 17
# In short: as §1
# [10] = system: Aspergillus fumigatus 9648; format: cell-based; settings: potato dextrose broth, 24 h, 37 °C, OD600 <0.1 in at least 3 of 4 wells, dose range 2 to 128 µg/mL; shaded values previously reported ref 17
# In short: as §1
# [11] = system: Fusarium solani NRRL 28548; format: cell-based; settings: potato dextrose broth, 24 h, 37 °C, OD600 <0.1 in at least 3 of 4 wells, dose range 2 to 128 µg/mL; shaded values previously reported ref 17
# In short: as §1
# [12] = system: E. cloacae 6054; format: cell-based; settings: cation adjusted Mueller-Hinton broth, ~10^6 CFU/mL, 24 h, 37 °C, OD600 <0.1 in at least 3 of 4 wells, 2-128 μg/mL; shaded values previously reported ref 18
# In short: as §1
# [13] = system: Mucor circinelloides NRRL 3631; format: cell-based; settings: potato dextrose broth, 24 h, 37 °C, OD600 <0.1 in at least 3 of 4 wells, dose range 2 to 128 µg/mL; shaded values previously reported ref 17
# In short: as §1
# [14] = system: Candida krusei Y-27803; format: cell-based; settings: potato dextrose broth, 24 h, 37 °C, OD600 <0.1 in at least 3 of 4 wells, dose range 2 to 128 µg/mL; shaded values previously reported ref 17
# In short: as §1
# [15] = system: Candida albicans Y-6359; format: cell-based; settings: potato dextrose broth, 24 h, 37 °C, OD600 <0.1 in at least 3 of 4 wells, dose range 2 to 128 µg/mL; shaded values previously reported ref 17
# In short: as §1
# [16] = system: Absidia corymbifera NRRL 6251; format: cell-based; settings: potato dextrose broth, 24 h, 37 °C, OD600 <0.1 in at least 3 of 4 wells, dose range 2 to 128 µg/mL; shaded values previously reported ref 17
# In short: as §1
smiles,measurement,setting,value
"CC[C@H](C)[C@@H]1NC(=O)CNC(=O)[C@H](CCCCN)NC(=O)[C@H](Cc2ccc(O)cc2)NC(=O)[C@@H]2CSSC[C@H](NC1=O)C(=O)N[C@@H](Cc1ccc(O)cc1)C(=O)N[C@@H](CCCCN)C(=O)N[C@@H](CCCCN)C(=O)N[C@H](C(=O)N[C@@H](CCCCN)C(N)=O)CSSC[C@H](NC(=O)[C@H](Cc1c[nH]c3ccccc13)NC(=O)[C@@H](N)CCCNC(=N)N)C(=O)N[C@@H](Cc1ccccc1)C(=O)N[C@@H](CCCCN)C(=O)N[C@@H](C(C)C)C(=O)N2 [RP556] (H-RWCFKVCYKGICYKKCK-NH2; disulfide 3-16, 7-12)",mammalian cell toxicity (in words),[1],Limited toxicity
same,P. aeruginosa killing (in words),[2],immediate eradication
same,MIC against Candida albicans Y-326,[3],16 µg/mL
same,MIC against Aspergillus flavus MYA-3651,[4],64 µg/mL
same,MIC against Candida krusei Y-27825,[5],32 µg/mL
same,MIC against Aspergillus fumigatus 9651,[6],64 µg/mL
same,MIC against E. cloacae 6053,[7],8 µg/mL
same,MIC against Candida parapsilosis Y-1763,[8],2 µg/mL
same,MIC against Aspergillus flavus MYA-1004,[9],64 µg/mL
same,MIC against Aspergillus fumigatus 9648,[10],64 µg/mL
same,MIC against Fusarium solani NRRL 28548,[11],2 µg/mL
same,MIC against E. cloacae 6054,[12],8 µg/mL
same,MIC against Mucor circinelloides NRRL 3631,[13],64 µg/mL
same,MIC against Candida krusei Y-27803,[14],16 µg/mL
same,MIC against Candida albicans Y-6359,[15],8 µg/mL
same,MIC against Absidia corymbifera NRRL 6251,[16],2 µg/mL
